Assay results published in ChEMBL document CHEMBL3885881, “DrugMatrix”.

Organism: Rattus norvegicus
Assay: DrugMatrix - Regimen: Daily Repeat
Type: toxicity, organism-based, Sprague-Dawley
Parameters: regimen Daily Repeat, gender Male, age 6-8 weeks
Details: in vivo, po, route oral GAVAGE, vehicle .5 % CMC; for ABSOLUTE EOSINOPHIL / ABSOLUTE LYMPHOCYTE / ABSOLUTE MONOCYTE / ABSOLUTE SEGMENTED NEUTROPHIL / BASOPHIL / EOSINOPHIL / ERYTHROCYTE COUNT / HEMATOCRIT / HEMOGLOBIN / LEUKOCYTE COUNT / LYMPHOCYTE / MEAN CORPUSCULAR HEMOGLOBIN CONCENTRATION / MEAN CORPUSCULAR VOLUME / MONOCYTE / NEUTROPHIL / NUCLEATED RED BLOOD CELLS / PLATELET COUNT / ABSOLUTE BASOPHIL: tissue Blood; for ALANINE AMINOTRANSFERASE / ALBUMIN / ALKALINE PHOSPHATASE / BLOOD UREA NITROGEN / CARBON DIOXIDE / CHLORIDE / CHOLESTEROL / CREATINE PHOSPHOKINASE / CREATININE / GLUCOSE / LACTATE DEHYDROGENASE / LIPASE / PHOSPHORUS / POTASSIUM / SODIUM / TOTAL BILIRUBIN / TOTAL PROTEIN: tissue Plasma
[1] = 60 mg/kg, 120 h, dose level High, time 5 day
[2] = […], 72 h, dose 1.5 mg/Kg, dose level Low, time 3 day
[3] = […], 120 h, dose 1.5 mg/Kg, dose level Low, time 5 day

CO[C@H]1C[C@@H]2CC[C@@H](C)[C@@](O)(O2)C(=O)C(=O)N2CCCC[C@H]2C(=O)O[C@H]([C@H](C)C[C@@H]2CC[C@@H](O)[C@H](OC)C2)CC(=O)[C@H](C)/C=C(\C)[C@@H](O)[C@@H](OC)C(=O)[C@H](C)C[C@H](C)/C=C/C=C/C=C/1C [SIROLIMUS]
ABSOLUTE EOSINOPHIL [1]: 0 CELLS/uL | ABSOLUTE LYMPHOCYTE [1]: 6680.33 CELLS/uL | ABSOLUTE MONOCYTE [1]: 49.67 CELLS/uL | ABSOLUTE SEGMENTED NEUTROPHIL [1]: 670 CELLS/uL | BASOPHIL [1]: 0% | EOSINOPHIL [1]: 0% | ERYTHROCYTE COUNT [1]: 6.63 x10E6/uL | HEMATOCRIT [1]: 40% | HEMOGLOBIN [1]: 15.77 G/DL | LEUKOCYTE COUNT [1]: 7.4 x10E3/uL | LYMPHOCYTE [1]: 90.33% | MEAN CORPUSCULAR HEMOGLOBIN CONCENTRATION [1]: 39.4 G/DL | MEAN CORPUSCULAR VOLUME [1]: 60.43 fL | MONOCYTE [1]: 0.67% | NEUTROPHIL [1]: 9% | NUCLEATED RED BLOOD CELLS [1]: 0 /100WBC | PLATELET COUNT [1]: 709.33 x10E3/uL | ALANINE AMINOTRANSFERASE [1]: 49.33 u/L | ALBUMIN [1]: 4.2 G/DL | ALKALINE PHOSPHATASE [1]: 311.67 u/L | BLOOD UREA NITROGEN [1]: 20.67 mg/dL | CARBON DIOXIDE [1]: 28.33 mmol/L | CHLORIDE [1]: 99.67 MEQ/L | CHOLESTEROL [1]: 81.67 mg/dL | CREATINE PHOSPHOKINASE [1]: 479 u/L | CREATININE [1]: 0.24 mg/dL | GLUCOSE [1]: 202.33 mg/dL | LACTATE DEHYDROGENASE [1]: 231.33 u/L | LIPASE [1]: 9.67 u/L | PHOSPHORUS [1]: 10.43 mg/dL | POTASSIUM [1]: 4.97 MEQ/L | SODIUM [1]: 145.27 MEQ/L | TOTAL BILIRUBIN [1]: 0.2 mg/dL | TOTAL PROTEIN [1]: 6.23 G/DL | ABSOLUTE BASOPHIL [2]: 0 CELLS/uL | ABSOLUTE EOSINOPHIL [2]: 267 CELLS/uL | ABSOLUTE LYMPHOCYTE [2]: 13791 CELLS/uL | ABSOLUTE MONOCYTE [2]: 267 CELLS/uL | ABSOLUTE SEGMENTED NEUTROPHIL [2]: 1575 CELLS/uL | BASOPHIL [2]: 0% | EOSINOPHIL [2]: 1.67% | ERYTHROCYTE COUNT [2]: 5.63 x10E6/uL | HEMATOCRIT [2]: 36.33% | HEMOGLOBIN [2]: 13.8 G/DL | LEUKOCYTE COUNT [2]: 15.9 x10E3/uL | LYMPHOCYTE [2]: 87% | MEAN CORPUSCULAR HEMOGLOBIN CONCENTRATION [2]: 38 G/DL | MEAN CORPUSCULAR VOLUME [2]: 64.5 fL | MONOCYTE [2]: 1.67% | NEUTROPHIL [2]: 9.67% | NUCLEATED RED BLOOD CELLS [2]: 0 /100WBC | PLATELET COUNT [2]: 1156 x10E3/uL | ALANINE AMINOTRANSFERASE [2]: 52.33 u/L | ALBUMIN [2]: 4.23 G/DL | ALKALINE PHOSPHATASE [2]: 361.33 u/L | BLOOD UREA NITROGEN [2]: 17.33 mg/dL | CARBON DIOXIDE [2]: 27.33 mmol/L | CHLORIDE [2]: 99 MEQ/L | CHOLESTEROL [2]: 79.33 mg/dL | CREATINE PHOSPHOKINASE [2]: 205.33 u/L | CREATININE [2]: 0.21 mg/dL | GLUCOSE [2]: 162 mg/dL | LACTATE DEHYDROGENASE [2]: 201.67 u/L | LIPASE [2]: 10 u/L | PHOSPHORUS [2]: 12.33 mg/dL | POTASSIUM [2]: 6.49 MEQ/L | SODIUM [2]: 144 MEQ/L | TOTAL BILIRUBIN [2]: 0.2 mg/dL | TOTAL PROTEIN [2]: 6 G/DL | ABSOLUTE BASOPHIL [3]: 0 CELLS/uL | ABSOLUTE EOSINOPHIL [3]: 0 CELLS/uL | ABSOLUTE LYMPHOCYTE [3]: 12718.33 CELLS/uL | ABSOLUTE MONOCYTE [3]: 96 CELLS/uL | ABSOLUTE SEGMENTED NEUTROPHIL [3]: 1619 CELLS/uL | BASOPHIL [3]: 0% | EOSINOPHIL [3]: 0% | ERYTHROCYTE COUNT [3]: 5.45 x10E6/uL | HEMATOCRIT [3]: 33.87% | HEMOGLOBIN [3]: 13.8 G/DL | LEUKOCYTE COUNT [3]: 14.43 x10E3/uL | LYMPHOCYTE [3]: 87.67% | MEAN CORPUSCULAR HEMOGLOBIN CONCENTRATION [3]: 40.77 G/DL | MEAN CORPUSCULAR VOLUME [3]: 62.2 fL | MONOCYTE [3]: 0.67% | NEUTROPHIL [3]: 11.67% | NUCLEATED RED BLOOD CELLS [3]: 0 /100WBC | PLATELET COUNT [3]: 1286.33 x10E3/uL | ALANINE AMINOTRANSFERASE [3]: 92.33 u/L | ALBUMIN [3]: 3.8 G/DL | ALKALINE PHOSPHATASE [3]: 328.67 u/L | BLOOD UREA NITROGEN [3]: 17.33 mg/dL | CARBON DIOXIDE [3]: 20.33 mmol/L | CHLORIDE [3]: 99 MEQ/L | CHOLESTEROL [3]: 66.67 mg/dL | CREATINE PHOSPHOKINASE [3]: 1089 u/L | CREATININE [3]: 0.25 mg/dL | GLUCOSE [3]: 251.33 mg/dL | LACTATE DEHYDROGENASE [3]: 725.33 u/L | LIPASE [3]: 11 u/L | PHOSPHORUS [3]: 14.07 mg/dL | POTASSIUM [3]: 6.17 MEQ/L | SODIUM [3]: 142.93 MEQ/L | TOTAL BILIRUBIN [3]: 0.2 mg/dL | TOTAL PROTEIN [3]: 5.43 G/DL
